Test results reported in patent US20030213746A1, “Neurosteroids as markers for alzheimer's disease” (priority 2003, published 2003).

Experiments:
[1] = tested on: brain samples from AD and Control Patients; assay: FeSO4 treatment of brain homogenates, P and D by RIA after HPLC; set-up: species or system human
Protocol: (§1) Tissue Samples: For brain samples from Alzheimer's patients and control patients, samples were treated as previously described (17). In brief, aliquots of homogenates were incubated with a final concentration of 30 mM (brain) or 10 mM (serum and CSF) FeSO4 at 37° C. for 2 hours. After 2 hours, samples were extracted and purified as described for the endogenous levels, and assayed by specific radioimmunoassay.
(§2) RIA using antibodies specific for each steroid (ICN Pharmaceuticals, Costa Mesa, Calif. Mesa) was used to measure P, progesterone and D levels. The data were analyzed using the IBM-PC RIA Data Reduction Program (version 4.1) from Jaffe and Associates (Silver Spring, Md.). Levels of β-amyloid species in AD and control brain samples were analyzed using 4G8 (Senetex PLC, Napa, Calif.), a monoclonal antibody to β-amyloid peptide that recognizes amino acids 17-24. Samples in 0.25 M sucrose buffer were run on 4-20% precast gradient gels (Novex, San Diego, Calif.). Samples were transferred to nitrocellulose membranes and incubated in primary antibody for 1 hour at room temperature at a dilution of 1:2000. Membranes were incubated in secondary antibody (1:1000) for 1-1.5 hours at room temperature and blots were visualized using ECL reagents (Amersham Pharmacia Biotech, Pisquataway, N.J.). Blots were exposed to X-OMAT film.

[2] = tested on: serum from AD and control patients; assay: FeSO4 treatment of serum, DHEA by RIA; set-up: species or system human
Protocol: as §1
Serum and CSF Levels of DHEA: Serum was obtained from 11 patients, 5 with AD and 6 age-matched controls. Serum samples were split and treated with and without 10 mM FeSO4. Serum and CSF samples were extracted as described for the brain tissue samples, and purified by HPLC. DHEA levels were measured by specific radioimmunoassay.

KG-1-C cells = assay: Alternative pathway D synthesis; assay type: cell-based, human; settings: increasing concentrations of FeSO4, two hours
Protocol: (§3) Alternative Pathway: To determine the amount of D synthesized by the alternative pathway cells were treated as previously described (15). In brief, cells were washed and oligodendrocytes and astrocytes were incubated with increasing concentrations of FeSO4 in serum free media, with and without SU 10603 (10 mM); neurons were incubated in serum free media containing 5 mM P plus FeSO4, with and without 10 mM SU 10603. After two hours, cells and media were homogenized and extracted as described above. Extracts were run on C18 TLC plates (Whatman, Clifton, N.J.) with a mobile phase of 95% methanol (v/v); radiolabeled standards for P, progesterone, and D were run on each plate, and appropriate steroid fractions were collected for each sample. TLC fractions were extracted with 2 ml diethyl ether (Fluka, New York) and evaporated. TLC extracts were assayed by specific radioimmunoassay (RIA). In separate experiments, steroids eluted from TLC were further identified by HPLC, RIA and Gas Chromatography-Mass Spectrometry (data not shown).
as §2

MGM-1 cells [3] = assay: Alternative pathway D synthesis; assay type: cell-based, human; settings: increasing concentrations of FeSO4, two hours
Protocol: as §3, §2

MGM-3 cells = assay: Alternative pathway D synthesis; assay type: cell-based, human; settings: increasing concentrations of FeSO4, two hours
Protocol: as §3, §2

NHA cells [4] = assay: Alternative pathway D synthesis; assay type: cell-based, human; settings: FeSO4, two hours, only seen at the highest dose
Protocol: as §3, §2

hNT-PF cells = assay: Alternative pathway D synthesis; assay type: cell-based, human
Protocol: as §3, §2

MGM-1 cells [5] = assay: ROS measurement by 2,7-DCF fluorescence; assay type: cell-based, human
Protocol: β-Amyloid Regulation of the Alternative Pathway: MGM-1 cells were plated on 96 well (˜5,000 cells/well, for ROS measurements) or 24 well (˜15,000 cells/well, for D measurements) plates (Corning Costar, Acton, Mass.). At the same time, 1 mg Ab (Ab(1-42), AnaSpec Inc., San Jose, Calif.) was dissolved in 0.5 ml serum-free media and incubated at 4 C. for aggregation. 24 hours later, cells were incubated in DMEM with 10% fetal bovine serum and […] and 10 mM Vitamin E (Sigma, St. Louis, Mo.). Control samples were incubated in DMEM with 10% FBS. Cells were incubated at 37 C. and 6% CO2 for at least 12 hours and processed for ROS generation (see below) or D synthesis as described above for the alternative experiments.
(§4) Treatment media was removed and the cells were washed with PBS. The fluorescent probe 2,7-dichlorofluorescin diacetate (2,7-DCF, Molecular Probes, Inc., Eugene, Oreg.) was used to measure levels of oxidative stress (48). Cells were incubated with […] 2,7-DCF, fluorescence was measured at 485 nm/535 nm using the Victor^2 Multilabel Counter (EG&G Wallac, Gaithersburg, Md.) and values of cellular fluorescence were obtained.

NHA cells [6] = assay: ROS measurement by 2,7-DCF fluorescence; assay type: cell-based, human; settings: all concentrations of FeSO4 tested
Protocol: as §4

MGM-1 cells [7] = assay: β-Amyloid regulation of the alternative pathway, D levels; assay type: cell-based, human
Protocol: as §3, with “In separate experiments, steroids eluted from TLC were further identified by HPLC, RIA and Gas Chromatography-Mass Spectrometry (data not shown).” left out
RIA using antibodies specific for each steroid (ICN Pharmaceuticals, Costa Mesa, Calif. Mesa) was used to measure P, progesterone and D levels. The data were analyzed using the IBM-PC RIA Data Reduction Program (version 4.1) from Jaffe and Associates (Silver Spring, Md.). Levels of β-amyloid species in AD and control brain samples were analyzed using 4G8 (Senetex PLC, Napa, Calif.), a monoclonal antibody to β-amyloid peptide that recognizes amino acids 17-24. […]

Human glioma cells = assay: Vitamin E treatment, ROS and D levels; assay type: cell-based; settings: 10 mM Vitamin E, at least twelve hours, data not shown
Protocol: as §3, with “In separate experiments, steroids eluted from TLC were further identified by HPLC, RIA and Gas Chromatography-Mass Spectrometry (data not shown).” left out
Treatment media was removed and the cells were washed with PBS. […] Cells were incubated with […] 2,7-DCF, fluorescence was measured at 485 nm/535 nm using the Victor^2 Multilabel Counter (EG&G Wallac, Gaithersburg, Md.) and values of cellular fluorescence were obtained.
We hypothesized that high endogenous levels of ROS might be responsible for the de novo D formation in KG-1-C and MGM-3 cells. […] We measured ROS and D levels in these cells as described in the Experimental Procedures. […]

[8] = tested on: oligodendrocytes or astrocytes; assay: D production after addition of P; assay type: cell-based, human; settings: addition of 5 μM P, data not shown
human brain cells = assay: D formation with SU 10603; assay type: cell-based; settings: all human brain cells examined
Protocol: as §3

cell lines used = assay: P levels with SU 10603 alone; assay type: cell-based, human; settings: any of the cell lines used, data not shown
KG-1-C and MGM-3 cells = assay: De novo steroid synthesis from 3H-mevalonactone; assay type: cell-based, human; settings: 5 mM SU 10603, KG-1-C and MGM-3 cells, radiolabeled D
Protocol: De Novo Steroid Synthesis: All steroid synthesis experiments were performed with the cells at 60-80% confluency. In order to determine the ability of the cells to synthesize steroids de novo, cells were incubated for two hours at 37 C. and 6% CO2, with specific steroidogenic enzyme inhibitors as previously described (50). In brief, endogenous cholesterol synthesis was blocked by incubating cells with 20 mM Mevastatin in serum-free media (Sigma, St. Louis, Mo.) for 1 hour. 10 mM Trilostane and 5 mM SU 10603 were then added. After 30 minutes, […] ^3H-mevalonactone (33 Ci/mmol, DuPont NEN, Boston, Mass.) and 10 mM cold mevalonactone (Sigma, St. Louis, Mo.) were added. Thirty minutes later, media and cells were combined and homogenized on ice for 20 sec. Homogenates were extracted twice with 4 ml of ether:ethyl acetate (1:1, v/v, Fluka, New York, and EM Science, Gibbstown, N.J.) and evaporated. Extracts were reconstituted in 100% methanol and separated on a Beckman System Gold HPLC system, using a 126NM Solvent Module, 166NM Detector and a Beckman ultrasphere XL 3-mm Spherical 80 A pore column (Beckman, Fullerton, Calif.), eluted on a methanol gradient. Fractions were collected each minute and counted by liquid scintillation spectrometry (EG&G Wallac, Gaithersburg, Md.) to determine production of radiolabeled steroids. […]

[9] = 30 mM FeSO4, frontal cortex, AD patients
[10] = 30 mM FeSO4, frontal cortex, control patients (C)
[11] = 30 mM FeSO4, hippocampus, AD patients
[12] = 30 mM FeSO4, hippocampus, control patients (C)
[13] = 30 mM FeSO4, hypothalamus, AD patients
[14] = 30 mM FeSO4, hypothalamus, control patients (C)

O=S(=O)([O-])[O-].[Fe+2] [FeSO4]
D (pg/mg protein) [1, 9]: 219.3 pg/mg protein | P (pg/mg protein) [1, 9]: 10485.5 pg/mg protein | D (pg/mg protein) [1, 10]: 70.0 pg/mg protein | P (pg/mg protein) [1, 10]: 7339.8 pg/mg protein | D (pg/mg protein) [1, 11]: 241.7 pg/mg protein | P (pg/mg protein) [1, 11]: 11584.0 pg/mg protein | D (pg/mg protein) [1, 12]: 128.3 pg/mg protein | P (pg/mg protein) [1, 12]: 8529.3 pg/mg protein | D (pg/mg protein) [1, 13]: 180.8 pg/mg protein | P (pg/mg protein) [1, 13]: 6640.3 pg/mg protein | D (pg/mg protein) [1, 14]: 61.4 pg/mg protein | P (pg/mg protein) [1, 14]: 7707.2 pg/mg protein | effect on D levels ([2]; 10 mM FeSO4, AD serum): little effect | increase in D levels ([2]; 10 mM FeSO4, control serum): 1.5-3 fold | effect on D levels (KG-1-C cells): did not significantly affect | D synthesis via the alternative pathway (MGM-1 cells [3]): has the ability to make D via the alternative pathway | effect on D levels (MGM-3 cells): did not significantly affect | effect on D formation (NHA cells [4]): significant effect | effect on D levels (hNT-PF cells; increasing concentrations of FeSO4 plus 5 mM P): not affected | ROS levels above untreated cells (MGM-1 cells [5]; all concentrations of FeSO4 tested, MGM-1): significant increase | ROS levels above untreated cells (NHA cells [6]): significant increase

Vitamin E
effect on Aβ-induced increase in ROS (MGM-1 cells [5]; 10 mM Vitamin E with 50 mM Aβ, MGM-1, p=0.054): partially blocked | effect on Aβ-induced increase in D levels (MGM-1 cells [7]; 10 mM Vitamin E with 50 mM Aβ, MGM-1, p<0.05 versus Ab): blocked | D levels compared to untreated cells (Human glioma cells): lowered | ROS levels compared to untreated cells (Human glioma cells): lowered

Aβ: β-amyloid peptide Ab(1-42), AnaSpec Inc., aggregated; a component of Alzheimer's disease plaques
2,7-DCF fluorescence (ROS) versus control levels (MGM-1 cells [5]; 50 mM Aβ, MGM-1, p<0.01): significant increase | D levels versus control (MGM-1 cells [7]; 50 mM Aβ, MGM-1, p<0.01): increased D levels significantly over control

CC(=O)[C@H]1CC[C@H]2[C@@H]3CC=C4C[C@@H](O)CC[C@]4(C)[C@H]3CC[C@]12C [P, pregnenolone]
D production [8]: did not result in increased D production

O=C1c2cc(Cl)ccc2CCC1c1cccnc1 (centres unmarked) [SU 10603]
effect on D levels (hNT-PF cells; SU 10603 treatment): not affected | inhibition of D formation (human brain cells): did not inhibit | effect on P levels (cell lines used): no effect | blocking endogenous D production (KG-1-C and MGM-3 cells): not effective
